A word on the IC50: it is the point on the concentration scale where inhibition reaches its midpoint. The bioavailability is the share of a dose that reaches the circulation, judged against a reference dose that is usually intravenous.

One data set deals with T1, KRAS (G12D)/SOS1 (Homo sapiens, UniProt P01116, G12D).
T1 construct: purchased Cisbio 63ADK000CB17PEH
The data set is described as follows: KRAS (G12D)/SOS1 homogeneous time-resolved fluorescence (HTRF) assay. In kind it is binding. The settings on record: absence of GTP, 4° C. for 3 hr. The procedure:
3-fold serial dilutions of each test compound were prepared ranging from 20 μM to 1.02 nM. The test compound was mixed and incubated with reaction components, incubated in a sealed plate at 4° C. for 3 hr and fluorescence was measured using a PerkinElmer Envision plate reader. […]
A general note: In TR-FRET formats the signal depends on donor and acceptor labels being close together.

In data set [1] the test system is AGS gastric carcinoma cells [heterozygous G12D]. The experiment in a line: Cancer cell line proliferation (CellTiter-Glo), AGS. In kind it is cell-based. The conditions noted are these: Homo sapiens, 72 hr, read-out: CTG(IC50), ABS-72 H(nM) AGS. On the procedure:
(§1) The following cancer cell lines were employed: AGS gastric carcinoma [heterozygous G12D] (ATCC, CRL-1739); A-427 lung carcinoma [heterozygous G12D] (ATCC, HTB-53); ASPC1 pancreatic adenocarcinoma [homozygous G12D] (ATCC, CRL-1682) and SW1990 pancreatic adenocarcinoma [homozygous G12D] (ATCC CRL-2172). Cell lines were cultured essentially according to ATCC recommendations.
(§2) AGS, A-427, ASPC1, SW1990, and GP2D cells were plated in 96-well tissue culture plates at 4,000 cells/well and incubated at 37° C./5% CO2 for 72 hr in 100 μl of media. 3-fold serial dilutions of each test compound were prepared ranging from 20 μM to 1.02 nM. Each cell line was then treated with test compounds at various concentrations with a final concentration of 0.5% DMSO/well, and then incubated at 37° C./5% CO2 for 72 hr. 100 μl of CellTiter-Glo® Reagent (Promega Corporation, Madison, WI) was added to each well and processed according manufacturer's protocol. Results were analyzed and IC50 5 values were calculated in GraphPad 7 software.
On the technique in general: Cellular ATP, detected with luciferase, serves as a proxy for viable cell number.

In data set [2] the test system is A-427 lung carcinoma cells [heterozygous G12D]. The experiment in a line: Cancer cell line proliferation (CellTiter-Glo), A-427. Format: cell-based. The conditions noted are these: Homo sapiens, A427 cells, 72 hr, read-out: CTG(IC50), ABS-72 H(nM) A427. The procedure: as §1, §2
Data set [3] has as its system ASPC1 pancreatic adenocarcinoma cells [homozygous G12D]. The experiment in a line: Cancer cell line proliferation (CellTiter-Glo), ASPC1. Format: cell-based. The conditions noted are these: Homo sapiens, ASPC-1 cells, 72 hr, read-out: CTG(IC50), ABS-72 H(nM) ASPC-1. On the procedure:
as §1, §2

The test system of data set [4] is SW1990 pancreatic adenocarcinoma cells [homozygous G12D]. The data set is described as follows: Cancer cell line proliferation (CellTiter-Glo), SW1990. In kind it is cell-based. The conditions noted are these: Homo sapiens, 72 hr, read-out: CTG(IC50), ABS-72 H(nM) SW1990. The procedure: as §1, §2
Data set [5] in a line: Oral bioavailability in CD-1 mice. The settings on record: male, CD-1, mouse, blood.
Method: CD-1 mice were randomly assigned to 6 groups with 3 male mice in each compound group. […] Compounds were orally administered (PO) in a single dose to each mouse in its group. Blood samples were taken within 72 hours. Bioavailability (F %) was determined and by liquid chromatography-mass spectrometry (LC-MS/MS).

T1 sequence (P01116 1-188 isoform P01116-2 G12D): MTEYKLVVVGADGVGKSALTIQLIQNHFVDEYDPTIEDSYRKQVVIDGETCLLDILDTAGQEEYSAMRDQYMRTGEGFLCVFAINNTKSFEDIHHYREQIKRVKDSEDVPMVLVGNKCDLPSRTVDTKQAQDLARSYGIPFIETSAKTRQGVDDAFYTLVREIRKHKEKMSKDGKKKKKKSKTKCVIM

On to `C#Cc1c(F)ccc2cc(O)cc(-c3ncc4c(N5CC6CCC(C5)N6)nc(OCC5(CN6CCC(F)CC6)CC5)nc4c3F)c12` [Example 1, 4-(4-(3,8-diazabicyclo[3.2.1]octan-3-yl)-8-fluoro-2-((1-((4-fluoropiperidin-1-yl)methyl)cyclopropyl)methoxy)pyrido[4,3-d]pyrimidin-7-yl)-5-ethynyl-6-fluoronaphthalen-2-ol], for which the IC50 (against KRAS (G12D)/SOS1; in data set [1]; in data set [2]; in data set [3]; in data set [4]) was less than 100 nM each time. In addition, in data set [5] (25 mg/kg), the bioavailability was 0.8%.
`[2H]C([2H])([2H])Oc1nc(-c2cc(O)cc3ccc(F)c(C#C)c23)c(F)c2nc(OCC3(CN4CC5CC5C4)CC3)nc(N3CC4CCC(C3)N4)c12` (centres unmarked) [Example 4]: the IC50 (at KRAS (G12D)/SOS1; in data set [1]; in data set [2]; in data set [3]; in data set [4]) was less than 100 nM each time. In data set [5] (25 mg/kg), this compound registered a bioavailability of 5.4%.
Regarding `C#Cc1c(F)ccc2cc(O)cc(-c3ncc4c(N5CC6CCC(C5)N6)nc(OCC5(CN6CCC7(CC6)OCCO7)CC5)nc4c3F)c12` [Example 24], the IC50 was less than 100 nM against KRAS (G12D)/SOS1; less than 100 nM in data set [1]; 100 to 1000 nM in data set [2]; greater than 1000 nM in data set [3]; less than 100 nM in data set [4].
As for `C#Cc1c(F)ccc2cc(O)cc(-c3ncc4c(N5CC6CCC(C5)N6)nc(OCC5(CN6CCC(S(=O)(=O)N(C)C)CC6)CC5)nc4c3F)c12` [Example 25], the IC50 was less than 100 nM at KRAS (G12D)/SOS1; less than 100 nM in data set [1]; greater than 1000 nM in data set [2]; 100 to 1000 nM in data set [3]; 100 to 1000 nM in data set [4].
`C#Cc1c(F)ccc2cc(O)cc(-c3ncc4c(N5CC6CCC(C5)N6)nc(OCC5(CN6CC=C(C(F)(F)F)CC6)CC5)nc4c3F)c12` [Example 26]: the half-maximal inhibitory concentration (IC50) against KRAS (G12D)/SOS1 is less than 100 nM; in data set [1] it was less than 100 nM; in data set [2], 100 to 1000 nM; in data set [3], less than 100 nM; in data set [4] it was less than 100 nM.
As to `C#Cc1c(F)ccc2cc(O)cc(-c3ncc4c(N5CC6CCC(C5)N6)nc(OCC(=C)CN5CCC(F)CC5)nc4c3F)c12` [Example 27], the concentration for half-maximal inhibition (IC50) is less than 100 nM at KRAS (G12D)/SOS1; less than 100 nM in data set [1]; 100 to 1000 nM in data set [2]; 100 to 1000 nM in data set [3]; less than 100 nM in data set [4].
Turning to `C#Cc1c(F)ccc2cc(O)cc(-c3nc(Cl)c4c(N5CC6CCC(C5)N6)nc(OCC5(CN6CCC(F)CC6)CC5)nc4c3F)c12` [Example 28], the IC50 against KRAS (G12D)/SOS1 was less than 100 nM; in data set [1], less than 100 nM; in data set [2], 100 to 1000 nM; in data set [3], less than 100 nM; in data set [4], less than 100 nM.
For `C#Cc1c(F)ccc2cc(O)cc(-c3nc(OC(C)C)c4c(N5CC6CCC(C5)N6)nc(OCC5(CN6CCC(C(F)(F)F)CC6)CC5)nc4c3F)c12` [Example 29], the concentration for half-maximal inhibition (IC50) is less than 100 nM at KRAS (G12D)/SOS1; less than 100 nM in data set [1]; 100 to 1000 nM in data set [2]; less than 100 nM in data set [3]; less than 100 nM in data set [4].
With `[2H]C([2H])([2H])Oc1nc(-c2cc(O)cc3ccc(F)c(C#C)c23)c(F)c2nc(OCC3(CN4CCC(C(F)(F)F)CC4)CC3)nc(N3CC4CCC(C3)N4)c12` [Example 30], the IC50 (on KRAS (G12D)/SOS1; in data set [1]; in data set [2]; in data set [3]; in data set [4]) was less than 100 nM in each case.
In the case of `C#Cc1c(F)ccc2cc(O)cc(-c3nc(OC4CC4)c4c(N5CC6CCC(C5)N6)nc(OCC5(CN6CCC(C(F)(F)F)CC6)CC5)nc4c3F)c12` [Example 31], the half-inhibitory concentration (IC50) was less than 100 nM on KRAS (G12D)/SOS1; less than 100 nM in data set [1]; 100 to 1000 nM in data set [2]; less than 100 nM in data set [3]; less than 100 nM in data set [4].
Take `C#Cc1c(F)ccc2cc(O)cc(-c3nc(OC(F)F)c4c(N5CC6CCC(C5)N6)nc(OCC5(CN6CCC(C(F)(F)F)CC6)CC5)nc4c3F)c12` [Example 32]: the IC50 on KRAS (G12D)/SOS1 is less than 100 nM; in data set [1], less than 100 nM; in data set [2], 100 to 1000 nM; in data set [3], 100 to 1000 nM; in data set [4], less than 100 nM.
On to `C#Cc1c(F)ccc2cc(O)cc(-c3nc(OC)c4c(N5CC6CCC(C5)N6)nc(OCC5(CN6CCOCC6)CC5)nc4c3F)c12` [Example 33], for which the IC50 on KRAS (G12D)/SOS1 is less than 100 nM; in data set [1], less than 100 nM; in data set [2], 100 to 1000 nM; in data set [3], less than 100 nM; in data set [4], less than 100 nM.
Take `C#Cc1c(F)ccc2cc(O)cc(-c3nc(Cl)c4c(N5CC6CCC(C5)N6)nc(OCC5(CN6CCC(C(F)(F)F)CC6)CC5)nc4c3F)c12` [Example 36]: the IC50 was less than 100 nM on KRAS (G12D)/SOS1; less than 100 nM in data set [1]; 100 to 1000 nM in data set [2]; less than 100 nM in data set [3]; less than 100 nM in data set [4].
For the compound `C#Cc1c(F)ccc2cc(O)cc(-c3nc(OC)c4c(N5CC6CCC(C5)N6)nc(OCC5(CN6CCC(C#N)C6)CC5)nc4c3F)c12` (centres unmarked) [Example 38], the IC50 (against KRAS (G12D)/SOS1; in data set [1]; in data set [3]; in data set [4]) was less than 100 nM each time. Further, in data set [5], the bioavailability turned out to be 1.8%.
`C#Cc1c(F)ccc2cc(O)cc(-c3nc(C)c4c(N5CC6CCC(C5)N6)nc(OCC5(CN6CCC(C(F)(F)F)CC6)CC5)nc4c3F)c12` [Example 39]: the IC50 was less than 100 nM on KRAS (G12D)/SOS1; less than 100 nM in data set [1]; 100 to 1000 nM in data set [2]; less than 100 nM in data set [3]; less than 100 nM in data set [4].
For the compound `C#Cc1c(F)ccc2cc(O)cc(-c3nc(OC4CC4)c4c(N5CC6CCC(C5)N6)nc(OCC5(CN6CC7CC7C6)CC5)nc4c3F)c12` (centres unmarked) [Example 40], the IC50 was less than 100 nM on KRAS (G12D)/SOS1; less than 100 nM in data set [1]; 100 to 1000 nM in data set [2]; less than 100 nM in data set [3]; less than 100 nM in data set [4].
Regarding `C#Cc1c(F)ccc2cc(O)cc(-c3nc(OC)c4c(N5CC6CCC(C5)N6)nc(OCC5(CN6CC7C(C6)C7C(F)(F)F)CC5)nc4c3F)c12` (centres unmarked) [Example 41], the half-maximal inhibitory concentration (IC50) against KRAS (G12D)/SOS1 is less than 100 nM; in data set [1], less than 100 nM; in data set [2], 100 to 1000 nM; in data set [3] it was less than 100 nM; in data set [4] it was less than 100 nM.
For the compound `C#Cc1c(F)ccc2cc(O)cc(-c3nc(OC)c4c(N5CC6CCC(C5)N6)nc(OCC5(CN6CC(F)C(F)C6)CC5)nc4c3F)c12` (centres unmarked) [Example 42], the IC50 on KRAS (G12D)/SOS1 is less than 100 nM; in data set [1] it was less than 100 nM; in data set [2], 100 to 1000 nM; in data set [3] it was less than 100 nM; in data set [4] it was less than 100 nM.
Take `C#Cc1c(F)ccc2cc(O)cc(-c3nc(OC)c4c(N5CC6CCC(C5)N6)nc(OCC5(CN6CC7C(C6)C7(F)F)CC5)nc4c3F)c12` (centres unmarked) [Example 49]: the IC50 (on KRAS (G12D)/SOS1; in data set [1]; in data set [3]; in data set [4]) was less than 100 nM in each case. The same compound yielded a bioavailability in data set [5] of 3.82%.
As for `C#Cc1c(F)ccc2cc(O)cc(-c3nc(OC)c4c(N5CC6CCC(C5)N6)nc(OCC5(CN6CC7C(C#N)C7C6)CC5)nc4c3F)c12` (centres unmarked) [Example 51], the IC50 (at KRAS (G12D)/SOS1; in data set [1]; in data set [3]; in data set [4]) was less than 100 nM in each case. The same compound displayed a bioavailability in data set [5] of 2.3%.
With `C#Cc1c(F)ccc2cc(O)cc(-c3ncc4c(N5CC6CCC(C5)N6C(=O)OC(C)OC(C)=O)nc(OCC5(CN6CCC(F)CC6)CC5)nc4c3F)c12` (centres unmarked) [Example 52], the concentration for half-maximal inhibition (IC50) is less than 100 nM on KRAS (G12D)/SOS1; less than 100 nM in data set [1]; 100 to 1000 nM in data set [2]; less than 100 nM in data set [3]; less than 100 nM in data set [4].
With `C#Cc1c(F)ccc2cc(O)cc(-c3nc(OC)c4c(N5CC6CCC(C5)N6)nc(OCC5(CN6CCC6)CC5)nc4c3F)c12` [Ref. 2, reference compound], the IC50 on KRAS (G12D)/SOS1 is less than 100 nM; in data set [1] it was less than 100 nM; in data set [3], 100 to 1000 nM; in data set [4], 100 to 1000 nM. Moreover, the bioavailability in data set [5] (25 mg/kg) stood at 0.15%.
Consider `C#Cc1c(F)ccc2cc(O)cc(-c3nc(OC)c4c(N5CC6CCC(C5)N6)nc(OCC5(CN6CCCC6)CC5)nc4c3F)c12` [Ref. 3, reference compound], for which the concentration for half-maximal inhibition (IC50) in data set [1] was less than 100 nM. Further, in data set [5], the bioavailability was 0.23%.
As for `C#Cc1c(F)ccc2cc(O)cc(-c3nc(OC)c4c(N5CC6CCC(C5)N6)nc(OCC5(CN(C)C)CC5)nc4c3F)c12` [Ref. 4, reference compound], the IC50 in data set [1] is less than 100 nM. This compound also had a bioavailability in data set [5] of 0.23%.

The values are drawn from US20260176290A1, “INHIBITORS OF KRAS(G12D)” (Ranok Therapeutics (Hangzhou) Co. Ltd., priority 2022, published 2026).
